Results published in US9051581B2, “Defense peptides against fungal infection and method of their use” (The Curators of the University of Missouri, priority 2010, dated 2015).

Columns and labels:
[1] = test system: P. pachyrhizi urediniospores; test: In vitro inhibition of urediniospore germ tube growth by phage-display peptide clones (initial assessment, repeated trials); assay type: cell-based, Phakopsora pachyrhizi; settings: inhibition = 50% or greater germ tube inhibition after 8 h incubation; 10^13 virions ml^−1; field-collected urediniospores
Protocol: Representative, affinity-selected, phage-display peptide clones were initially assessed in vitro for the ability to inhibit urediniospore germ tube growth. Two-hundred fifty phage clones, randomly chosen from the final selection round, were amplified by E. coli infection, twice purified using PEG-precipitation, and re-suspended in sterile deionized water. Phage concentrations were calculated from UV absorbance measurements as virions μl^−1 (2).
A 25-μl water droplet containing ≈300 non-germinated urediniospores collected from soybean leaves in Florida was incubated on a microscope slide in the presence of a phage clone at a concentration equivalent to 10^13 virions ml^−1. […] Urediniospores were visualized using an Olympus Stereo Zoom Microscope (model SZH; Olympus Optical Co., LTD, Tokyo, Japan) at 50× magnification under transmitted light. Images of germinating urediniospores were captured in random microscope fields with a Spot Insight Color digital camera (Diagnostic Instruments, Inc., Sterling Heights, Mich.). Images were manipulated for viewing using Spot imaging software (version 4.0.3) set up with auto exposure to provide contrast of developing germ tubes against a green background. Comparative germination was assessed in three separate experiments. Phage clones that induced greater than 50% reduction in germ tube length (by visual estimation) compared to growth in water were evaluated in seven additional experiments.

[2] = test system: Phakopsora pachyrhizi urediniospores; test: In vitro inhibition of urediniospore germ tube growth by ZmCKX1-peptides; assay type: cell-based; settings: ZmCKX1 scaffold-display format
Protocol: Purified ZmCKX1-Sp2 and ZmCKX1-Sp39 peptides were assessed in vitro for the ability to inhibit urediniospore germination. A 25-μl water droplet containing 300 freshly harvested MOS-2008 urediniospores was incubated on a glass slide in the presence of either ZmCKX1-Sp2 or ZmCKX1-Sp39. Control treatments included urediniospores incubated in water or in the presence of ZmCKX1 alone. Germ tube growth was visualized over time and quantified by image capture and analyses as described previously.

[3] = test system: Phakopsora pachyrhizi urediniospores; test: Effect of phage-display peptide concentration on urediniospore germ tube elongation in vitro; assay type: cell-based; settings: for effective peptide concentration equivalent at maximal inhibition, phage-display format: five peptide copies per M13 virion at ≈10^13 virions ml^−1
Protocol: The bioactivities of two inhibitory phage-display peptide clones, M13-Sp2 and M13-Sp39, identified in initial assessments were estimated over a range of concentrations including 0.5, 1.0, and 1.5×10^13 virions ml^−1. As before, a 25-μl water droplet containing ≈300 urediniospores was incubated at 22° C. (4) on a microscope slide in the presence of M13-Sp2 or M13-Sp39 at each concentration. Urediniospores in these and all subsequent experiments were derived from the Missouri population, MOS-2008. Control treatments included urediniospores incubated either in water or an equivalent concentration of phage from an unselected library. Spore germination and germ tube growth were visualized over time and quantified by image capture and analyses using MetaMorph software (Version 6.2r6, Universal Imaging, Downington, Pa.). Germ tube length was measured using a line scan function based on conversion of image pixels to length. Germ tube length was averaged from 50 randomly selected germinated urediniospores in each image and across four experimental replicates per treatment.

Sequence: LTKEPATGRAML (Random peptide insert) [Sp18, 12-mer phage-display selected peptide]
- Frequency of germ tube inhibition over 10 trials [1]: 6

Sequence: ASTIGNLMPGHS (Random peptide insert) [Sp14, 12-mer phage-display selected peptide]
- Frequency of germ tube inhibition over 10 trials [1]: 5

Sequence: MLESHAWPPRAI (Random peptide insert) [Sp2]
- concentration of maximum germ tube inhibition, displayed on ZmCKX1 scaffold [2]: 115 µM
- effective peptide concentration equivalent at maximal inhibition, phage-display format [3]: 10 nM
- concentration of maximal inhibition of germ tube elongation, phage-display format [3]: ≈ 10^13 virions ml^−1
- Frequency of germ tube inhibition over 10 trials [1]: 8

Sequence: TFDRHILDTRGS (Random peptide insert) [Sp6, 12-mer phage-display selected peptide]
- Frequency of germ tube inhibition over 10 trials [1]: 3

Sequence: TPTRSLDSPHNM (Random peptide insert) [Sp59, 12-mer phage-display selected peptide]
- Frequency of germ tube inhibition over 10 trials [1]: 4

Sequence: DHIRISTSYKSP (Random peptide insert) [Sp51, 12-mer phage-display selected peptide]
- Frequency of germ tube inhibition over 10 trials [1]: 3

Sequence: FDPHEPTNTRSP (Random peptide insert) [Sp15, 12-mer phage-display selected peptide]
- Frequency of germ tube inhibition over 10 trials [1]: 6

Sequence: YNKPSFQDHSVI (Random peptide insert) [Sp39]
- concentration of maximum germ tube inhibition, displayed on ZmCKX1 scaffold [2]: 115 µM
- effective peptide concentration equivalent at maximal inhibition, phage-display format [3]: 10 nM
- concentration of maximal inhibition of germ tube elongation, phage-display format [3]: ≈ 10^13 virions ml^−1
- Frequency of germ tube inhibition over 10 trials [1]: 7

Sequence: DRFTSDLRAPDS (Random peptide insert) [Sp61, 12-mer phage-display selected peptide]
- Frequency of germ tube inhibition over 10 trials [1]: 3

Sequence: STVASLGKPTKI (Random peptide insert) [Sp8, 12-mer phage-display selected peptide]
- Frequency of germ tube inhibition over 10 trials [1]: 4

Sequence: YISPLPNAATIS (Random peptide insert) [Sp5, 12-mer phage-display selected peptide]
- Frequency of germ tube inhibition over 10 trials [1]: 3
